We go through eight compounds from patent US20260306460A1, “COMPOSITION FOR REMOVING AND INHIBITING SENESCENT CELLS, AND USES THEREOF” (LIFECEUTIX CO., LTD., priority 2023, published 2026).

For series [1], the system named is transplanted kidney of aged mice. As to the kind of experiment: Efficiency of kidney transplantation from aged mice into young mice. The class given is in vivo, mouse. How it is done: Furthermore, the efficiency of kidney transplantation following the removal of senescent cells from the kidney was evaluated. Kidneys extracted from aged mice of Example 21-1, untreated and treated with LX-403, were transplanted into 3-month-old young mice. Three days later, the efficiency of kidney transplantation was assessed through analysis of markers of aging and kidney damage. […] This improvement in transplantation efficiency was also observed when kidneys extracted from aged mice were transplanted after removing senescent cells under ex vivo conditions, such as by culturing them in an LX-403-containing medium.

The subject of series [2] is senescent A549 cells. Description: Viability of senescent A549 cancer cells (CellTiter-Glo), Example 12. The class given is cell-based, human. The note with it: 0 μM = 100.
Method: Cells were treated with doxorubicin or control (DMSO) and cultured.
Cancer cells in which aging was induced by treatment with doxorubicin were treated with the test compound at designated concentrations and measured using the CellTiter-Glo Luminescent Cell Viability Assay (Promega).
Series [3] deals with HMGN1 secreted from senescent human cells. Description: HMGN1 secretion (ELISA) from doxorubicin-induced senescent human cells, Example 11. The class given is cell-based. To be noted: senescent untreated = 100%; 30 μM; 90 μM for LX-305, 1302, 1603, 2005, 2702, 2901, 3106; 270 μM for LX-1103, 2007.
Series [4] relates to naturally aged C57BL6J mice. As to the kind of experiment: Serum IL6 and MCP1 (ELISA) in naturally aged mice, Example 21-5. To be noted: untreated aged = 100, LX-5701 360 mg/kg po, LX-2101 20 mg/kg ip, LX-2102 10 mg/kg ip, daily 21 days. The class given is in vivo, mouse. The protocol: 22-month-old female C57BL6J mice (KRIBB Laboratory Animal Resource Center) were acclimated to the experimental environment for one week, after which the aged mice were randomly assigned to experimental and control groups. Eight-week-old, non-aged mice served as controls. LX-403 was mixed in a 10% ethanol solution of PEG400 and administered orally at a concentration of 25 mg/kg daily for 21 days, or administered to the skin, joints, or eyes at a concentration of 1 μM. LX-1801 was mixed in distilled water with 4% DMSO, 30% PEG300, and 5% Tween80 and administered to the skin, joints, or eyes at a concentration of 0.4 μM daily for 21 days. LX-2001 was mixed in PBS and administered to the skin, joints, or eyes at a concentration of […] daily for 21 days. LX-2002 was mixed in distilled water with 4% DMSO, 30% PEG300, and 5% Tween80 and administered to the skin, joints, or eyes at a concentration of 2 μM daily for 21 days. […] LX-2005 was mixed in distilled water with 4% DMSO, 30% PEG300, and 5% Tween80 and administered to the skin, joints, or eyes at a concentration of 90 μM daily for 21 days. LX-2007 was mixed in distilled water with 4% DMSO, 30% PEG300, and 5% Tween80 and administered to the skin, joints, or eyes at a concentration of 90 μM daily for 21 days. […] LX-3002 was mixed in distilled water with 4% DMSO, 30% PEG300, and 5% Tween80 and administered orally at a concentration of 10 mg/kg daily for 21 days. […] LX-5411 was mixed in 5% PBS and administered orally at a concentration of 10 mg/kg daily for 21 days or administered to the skin, joints, or eyes at a concentration of 3 μM. LX-5701 was mixed in PBS and administered orally at a concentration of 360 mg/kg daily for 21 days. LX-6807 was mixed in saline and administered intraperitoneally at a concentration of 1 mg/kg daily for 21 days. LX-2101 or LX-2102 was mixed in PBS solution with 5% DMSO and administered intraperitoneally at a concentration of 20 mg/kg or 10 mg/kg, respectively, daily for 21 days. The control group received only the solution in the same volume. After the end of drug administration, the methods described in each example below were performed.
The amounts of IL6 and MCP1, senescence-associated secretory factors (SASPs), in serum collected from mice were measured using an enzyme-linked immunosorbent assay (ELISA Kit, R&D Systems).

Series [5] relates to cigarette smoke-induced COPD C57BL6J mice. As to the kind of experiment: Cigarette smoke COPD in mice (p16, IL6 mRNA, alveoli size), Example 25, Table 49. The class given is in vivo, mouse. The note with it: for Airspace enlargement: average size of alveoli, untreated 38.7 (±0.6); for IL6 mRNA / p16 mRNA: lung, daily for 21 days, untreated 100%. The protocol: Eight-week-old male C57BL6J mice (KRIBB Laboratory Animal Resource Center) were acclimated to the experimental environment for one week. After exposure to standard cigarette smoke (costa monitoring cigarette 7) for 5 hours per day, 5 days per week for 6 months, chronic obstructive pulmonary disease (COPD) was induced. Mice with induced COPD were randomly assigned to experimental and control groups. […] LX-3002 was mixed in distilled water with 4% DMSO, 30% PEG300, 5% tween80 and administered orally at a concentration of 10 mg/kg daily for 21 days. LX-5701 was mixed in PBS and administered orally at a concentration of 360 mg/kg daily for 21 days. LX-6807 was mixed in saline and administered intraperitoneally at a concentration of 1 mg/kg daily for 21 days. The control group received only the solution in the same volume. After the end of drug administration, mice were sacrificed in the same manner as in Example 7-2 of WO2023-085787 A1, RNA was extracted from lung tissue, and qRT-PCR (quantitative real-time PCR) was performed and analyzed using the synthesized cDNA. […] The amount of mRNA after aging was calculated as 100%, and the results after treatment with the test compound were compared. Furthermore, paraffin sections were stained with hematoxylin/eosin (H/E), and the size of alveoli was measured under a light microscope to assess the degree of lung function impairment.

Series [6] concerns obesity-induced aged C57BL6J mice. Description: Fatty liver (Oil Red O, AST, ALT) in obesity-aged mice, Example 23-5, Table 45. It counts as in vivo, mouse. The note with it: daily for 21 days, untreated 100%; for ALT / AST: serum; for Oil Red O: staining area, liver.
Method: After acclimation to the experimental environment for one week, the mice were randomly assigned to experimental and control groups. […] The control group received only the solution in the same volume. After the end of drug administration, the methods described in each example below were performed.
For series [7], the system named is doxorubicin-induced aged C57BL6J mice. As to the kind of experiment: Liver damage (AST, ALT) in doxorubicin-aged mice, Example 22-8, Table 37. It counts as in vivo, mouse. The note with it: serum, amount after aging calculated as 100%.
Method: Eight-week-old male C57BL6J mice (KRIBB Laboratory Animal Resource Center) were acclimated to the experimental environment for one week. […] The aging-induced mice were randomly assigned to experimental and control groups. […] The control group received only the solution in the same volume.
The amounts were measured spectrophotometrically using a kit (Sigma) according to the manufacturer's instructions. […] The amount of each factor after aging was calculated as 100% and compared with the amount of each factor after treatment with the test compound.

Consider `O=C(C(C[N+](=O)[O-])=NO)N1CCN(C(c2ccc(Cl)cc2)c2ccc(Cl)cc2)CC1` [LX-403], for which the “p16 of transplanted kidney, serum urea and creatinine” value in series [1] (3 days after transplantation) is reported as “reduced”. Also, the “efficiency of kidney transplantation” value in series [1] (mouse, in vivo) is recorded as “improves the efficiency of kidney transplantation”.

Regarding `S=C(N/N=C1\CCCc2cccnc21)N1CCN(c2ccccn2)CC1` [LX-801], the values for the Survival in series [2] (1.1 μM), in series [2] (10 μM) and in series [2] ([…]) were 78.1%, 12.7% and 58.5%, respectively. Also, the HMGN1 in series [3] is reported as 265%.

Consider `CC1(C)CC[C@]2(NC(=O)C(C)(F)F)CC[C@]3(C)[C@H](C(=O)C=C4[C@@]5(C)C=C(C#N)C(=O)C(C)(C)[C@@H]5CC[C@]43C)[C@@H]2C1` [LX-2101, Omaveloxolone], for which, in series [4], the IL6 is 49 (±21.8) % and the MCP1 is listed as 58 (±9.5) %.

For `COC(=O)[C@]12CCC(C)(C)C[C@H]1[C@H]1C(=O)C=C3[C@@]4(C)C=C(C#N)C(=O)C(C)(C)[C@@H]4CC[C@@]3(C)[C@]1(C)CC2` [LX-2102, Bardoxolone methyl], in series [4], the IL6 is reported as 58 (±16.1) % and the MCP1 is reported as 61 (±14.0) %.

`CCCC\C=C/C=C/C=C\CCCCCCCC(=O)O` [LX-2707, Punicic acid]: in series [5], the Airspace enlargement was 36.4 (±1.9) μm, the “IL6 mRNA” value is 76 (±6.7) % and the “p16 mRNA” value is 78 (±5.5) %. In addition, in series [6], the ALT is reported as 64 (±3.1) %, the AST is given as 75 (±2.1) % and the “Oil Red O” value is on record as 67 (±1.7) %. Also, in series [7], the ALT is listed as 76 (±5.6) % and the AST was 70 (±3.2) %.

Consider `O=C1C2CCN(CC2)C1CNC(=O)C(F)(F)F` (stereo not drawn) [LX-5701], for which, in series [4], the IL6 is reported as 68 (±14.1) % and the MCP1 is on record as 62 (±9.8) %. Also, in series [5], the Airspace enlargement is on record as 31.9 (±2.4) μm, the “IL6 mRNA” value was 59 (±16.8) % and the “p16 mRNA” value is 70 (±7.8) %. Moreover, in series [6], the ALT was 64 (±7.9) %, the AST is reported as 69 (±8.8) % and the “Oil Red O” value is 55 (±17.2) %. In series [7], the ALT was 64 (±15.7) % and the AST is 72 (±13.5) %.

Turning to `Cc1cccc([C@H](C)c2cnc[nH]2)c1C` [LX-6807, Dexmedetomidine], in series [5], the Airspace enlargement is reported as 30.4 (±1.5) μm, the “IL6 mRNA” value is 48 (±5.6) % and the “p16 mRNA” value is 68 (±2.4) %. Moreover, in series [6], the ALT is 70 (±6.4) %, the AST was 66 (±4.4) % and the “Oil Red O” value is recorded as 53 (±3.9) %. For the same compound, in series [7], the ALT is reported as 80 (±6.7) % and the AST is 75 (±7.0) %.

As to Tocofersolan [LX-3001], the Survival in series [2] (1.1 μM) amounted to 101.6%. In series [2] (10 μM), this compound registered a Survival of 22.6%. Further, the Survival in series [2] ([…]) was 95.6%. The compound further had an HMGN1 in series [3] of 301%. Besides, in series [5], the Airspace enlargement is 37.1 (±2.7) μm, the “IL6 mRNA” value is listed as 79 (±9.9) % and the “p16 mRNA” value is recorded as 83 (±5.0) %. In addition, in series [6], the ALT is given as 71 (±1.3) % and the “Oil Red O” value is listed as 83 (±4.0) %.
